Measurements taken from patent US9469650B2, “Melampomagnolide B derivatives” (BOARD OF TRUSTEES OF THE UNIVERSITY OF ARKANSAS, priority 2013, dated 2016).

Columns and labels:
SF-539 = test: panel of 60 human tumor cell lines, growth inhibition (CNS Cancer)
SR = test: panel of 60 human tumor cell lines, growth inhibition (Leukemia)
BT-549 = test: panel of 60 human tumor cell lines, growth inhibition (Breast Cancer)
COLO 205 = test: panel of 60 human tumor cell lines, growth inhibition (Colon Cancer)
MDA-MB-435 = test: panel of 60 human tumor cell lines, growth inhibition (Melanoma)
RXF 393 = test: panel of 60 human tumor cell lines, growth inhibition (Renal Cancer); details: for Percent Growth: RXF 393
SF-295 = test: panel of 60 human tumor cell lines, growth inhibition (CNS Cancer)
SNB-19 = test: as above
ACHN = test: panel of 60 human tumor cell lines, growth inhibition (Renal Cancer)
NCI/ADR-RES = test: panel of 60 human tumor cell lines, growth inhibition (Ovarian Cancer)

In the case of `C=C1C(=O)O[C@H]2[C@H]1CC/C(COC(=O)CCC(=O)NCc1ccc(Cl)nc1)=C\CC[C@@]1(C)O[C@@H]21` [JVM 96], the GI50 (SF-539; Homo sapiens, SF-539) is reported as 3.25 µM, the CC50 (SF-539; Homo sapiens, SF-539, read-out: LC50) is reported as 40.8 µM and the IC (TGI) (SF-539; Homo sapiens, SF-539, read-out: TGI) is reported as 12.2 µM. For the same compound, the “Percent Growth” value (SF-539; SF-539, Log10 Concentration −4.0) was −87%, the “Percent Growth” value (SF-539; SF-539, Log10 Concentration −5.0) was 8% and the “Percent Growth” value (SF-539; SF-539, Log10 Concentration −6.0) was 94%. For the same compound, the “Percent Growth” value (SF-539; SF-539, Log10 Concentration −7.0) was 85%, the “Percent Growth” value (SF-539; SF-539, Log10 Concentration −8.0) was 96% and the GI50 (SR; Homo sapiens) was 2.59 µM. The CC50 (SR; Homo sapiens, read-out: LC50) was greater than 100 µM, the IC (TGI) (SR; Homo sapiens, read-out: TGI) was 18 µM and the “Percent Growth” value (SR; Log10 Concentration −4.0) was −35%. The “Percent Growth” value (SR; Log10 Concentration −5.0) was 12%, the “Percent Growth” value (SR; Log10 Concentration −6.0) was 77% and the “Percent Growth” value (SR; Log10 Concentration −7.0) was 90%. For the same compound, the “Percent Growth” value (SR; Log10 Concentration −8.0) was 84%, the “Percent Growth” value (BT-549; BT-549, Log10 Concentration −4.0) was −97% and the “Percent Growth” value (BT-549; BT-549, Log10 Concentration −5.0) was 32%. For the same compound, the “Percent Growth” value (BT-549; BT-549, Log10 Concentration −6.0) was 93%, the “Percent Growth” value (BT-549; BT-549, Log10 Concentration −7.0) was 139% and the “Percent Growth” value (BT-549; BT-549, Log10 Concentration −8.0) was 102%. It also gave a GI50 (BT-549; Homo sapiens, BT-549) of 5.14 µM, a CC50 (BT-549; Homo sapiens, BT-549, read-out: LC50) of 43.1 µM and an IC (TGI) (BT-549; Homo sapiens, BT-549, read-out: TGI) of 17.8 µM. The “Percent Growth” value (COLO 205; COLO 205, Log10 Concentration −4.0) was −90%, the “Percent Growth” value (COLO 205; COLO 205, Log10 Concentration −5.0) was 1% and the “Percent Growth” value (COLO 205; COLO 205, Log10 Concentration −6.0) was 103%. The “Percent Growth” value (COLO 205; COLO 205, Log10 Concentration −7.0) was 105%, the “Percent Growth” value (COLO 205; COLO 205, Log10 Concentration −8.0) was 109% and the GI50 (COLO 205; Homo sapiens, COLO 205) was 3.3 µM. The CC50 (COLO 205; Homo sapiens, COLO 205, read-out: LC50) was 36.6 µM, the IC (TGI) (COLO 205; Homo sapiens, COLO 205, read-out: TGI) was 10.3 µM and the GI50 (MDA-MB-435; Homo sapiens, MDA-MB-435) was 4.95 µM. For the same compound, the CC50 (MDA-MB-435; Homo sapiens, MDA-MB-435, read-out: LC50) was 61.9 µM, the IC (TGI) (MDA-MB-435; Homo sapiens, MDA-MB-435, read-out: TGI) was 20.4 µM and the “Percent Growth” value (MDA-MB-435; MDA-MB-435, Log10 Concentration −4.0) was −72%. The “Percent Growth” value (MDA-MB-435; MDA-MB-435, Log10 Concentration −5.0) was 32%, the “Percent Growth” value (MDA-MB-435; MDA-MB-435, Log10 Concentration −6.0) was 90% and the “Percent Growth” value (MDA-MB-435; MDA-MB-435, Log10 Concentration −7.0) was 89%. For the same compound, the “Percent Growth” value (MDA-MB-435; MDA-MB-435, Log10 Concentration −8.0) was 97%, the GI50 (RXF 393; Homo sapiens, RXF 393, RXF 393) was 3.57 µM and the CC50 (RXF 393; Homo sapiens, RXF 393, read-out: LC50) was 48.4 µM. For the same compound, the IC (TGI) (RXF 393; Homo sapiens, RXF 393, read-out: TGI) was 14.4 µM, the “Percent Growth” value (RXF 393; Log10 Concentration −4.0) was −80% and the “Percent Growth” value (RXF 393; Log10 Concentration −5.0) was 15%. For the same compound, the “Percent Growth” value (RXF 393; Log10 Concentration −6.0) was 93%, the “Percent Growth” value (RXF 393; Log10 Concentration −7.0) was 100% and the “Percent Growth” value (RXF 393; Log10 Concentration −8.0) was 93%. The GI50 (SF-295; Homo sapiens, SF-295) was 16.6 µM, the CC50 (SF-295; Homo sapiens, SF-295, read-out: LC50) was 84.2 µM and the IC (TGI) (SF-295; Homo sapiens, SF-295, read-out: TGI) was 37.4 µM. For the same compound, the “Percent Growth” value (SF-295; SF-295, Log10 Concentration −4.0) was −61%, the “Percent Growth” value (SF-295; SF-295, Log10 Concentration −5.0) was 81% and the “Percent Growth” value (SF-295; SF-295, Log10 Concentration −6.0) was 96%. For the same compound, the “Percent Growth” value (SF-295; SF-295, Log10 Concentration −7.0) was 91%, the “Percent Growth” value (SF-295; SF-295, Log10 Concentration −8.0) was 93% and the GI50 (SNB-19; Homo sapiens, SNB-19) was 15.6 µM. For the same compound, the CC50 (SNB-19; Homo sapiens, SNB-19, read-out: LC50) was greater than 100 µM, the IC (TGI) (SNB-19; Homo sapiens, SNB-19, read-out: TGI) was 42.3 µM and the “Percent Growth” value (SNB-19; SNB-19, Log10 Concentration −4.0) was −43%. For the same compound, the “Percent Growth” value (SNB-19; SNB-19, Log10 Concentration −5.0) was 72%, the “Percent Growth” value (SNB-19; SNB-19, Log10 Concentration −6.0) was 88% and the “Percent Growth” value (SNB-19; SNB-19, Log10 Concentration −7.0) was 96%. The “Percent Growth” value (SNB-19; SNB-19, Log10 Concentration −8.0) was 93%, the GI50 (ACHN; Homo sapiens) was 4.45 µM and the CC50 (ACHN; Homo sapiens, read-out: LC50) was 51.9 µM. For the same compound, the IC (TGI) (ACHN; Homo sapiens, read-out: TGI) was 17.9 µM, the “Percent Growth” value (ACHN; Log10 Concentration −4.0) was −81% and the “Percent Growth” value (ACHN; Log10 Concentration −5.0) was 27%. The “Percent Growth” value (ACHN; Log10 Concentration −6.0) was 92%, the “Percent Growth” value (ACHN; Log10 Concentration −7.0) was 94% and the “Percent Growth” value (ACHN; Log10 Concentration −8.0) was 98%. It also gave a GI50 (NCI/ADR-RES; Homo sapiens) of 31.1 µM, a CC50 (NCI/ADR-RES; Homo sapiens, read-out: LC50) greater than 100 µM and an IC (TGI) (NCI/ADR-RES; Homo sapiens, read-out: TGI) greater than 100 µM. For the same compound, the “Percent Growth” value (NCI/ADR-RES; Log10 Concentration −4.0) was 6%.
